# Experimental data from US12162858B2, “Quinoline derivatives as inhibitors of AXL/MER RTK and CSF1R” (QURIENT CO., LTD., priority 2018, dated 2024).
# Read-outs that look alike come from different tables or passages of the source.
# Columns and labels:
# Mer = target: T1, Mer (Homo sapiens, UniProt Q12866); experiment: LanthaScreen Eu kinase binding assay for Mer
# T1 construct: purchased Life Technologies
# T1 sequence (Q12866 21-999): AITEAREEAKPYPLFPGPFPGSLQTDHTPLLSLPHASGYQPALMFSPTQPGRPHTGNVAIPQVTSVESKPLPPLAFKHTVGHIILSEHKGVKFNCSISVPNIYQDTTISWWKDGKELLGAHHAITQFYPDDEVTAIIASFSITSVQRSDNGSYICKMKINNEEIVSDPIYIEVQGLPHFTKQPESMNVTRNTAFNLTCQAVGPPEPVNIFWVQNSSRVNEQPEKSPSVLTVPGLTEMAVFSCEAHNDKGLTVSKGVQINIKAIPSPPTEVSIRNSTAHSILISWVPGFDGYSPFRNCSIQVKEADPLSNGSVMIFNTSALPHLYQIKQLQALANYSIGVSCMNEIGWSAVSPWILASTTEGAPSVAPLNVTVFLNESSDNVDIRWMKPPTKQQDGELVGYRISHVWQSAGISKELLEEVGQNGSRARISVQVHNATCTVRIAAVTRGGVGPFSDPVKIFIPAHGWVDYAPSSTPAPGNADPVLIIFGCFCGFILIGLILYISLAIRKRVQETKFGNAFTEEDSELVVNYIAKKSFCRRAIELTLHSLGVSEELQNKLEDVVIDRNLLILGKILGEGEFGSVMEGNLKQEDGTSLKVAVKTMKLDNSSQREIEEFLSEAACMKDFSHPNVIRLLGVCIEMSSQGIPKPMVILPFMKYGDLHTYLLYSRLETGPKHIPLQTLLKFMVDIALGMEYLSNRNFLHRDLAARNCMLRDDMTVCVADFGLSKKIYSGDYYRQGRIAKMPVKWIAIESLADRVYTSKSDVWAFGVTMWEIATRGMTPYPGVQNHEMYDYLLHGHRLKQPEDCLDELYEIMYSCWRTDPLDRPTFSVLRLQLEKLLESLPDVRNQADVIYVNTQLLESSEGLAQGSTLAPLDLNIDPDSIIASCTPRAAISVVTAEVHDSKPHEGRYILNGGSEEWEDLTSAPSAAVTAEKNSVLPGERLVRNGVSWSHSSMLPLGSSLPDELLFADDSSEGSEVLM
# Experimental: (§1) LanthaScreen® Eu Kinase Binding assays were conducted at Life Technologies using the manufacturer's specifications for each kinase indicated.
# (§2) Briefly, the principle behind this assay is based upon the binding and displacement of an Alexa Fluor 647-labeled tracer to the kinase of interest. Binding of the tracer to the kinase is detected using an EU-labeled anti-tag antibody. Simultaneous binding of both the tracer and antibody to the kinase gives rise to a FRET-signal. Binding of an inhibitor to the kinase competes for binding with the tracer, resulting in a loss of FRET-signal.
# (§3) A given compound was diluted in DMSO to make a stock compound solution. The stock compound solution was serially diluted over eight steps in DMSO. Each diluted compound solution in DMSO was diluted in kinase buffer. Afterwards four kinds of working solution were prepared. First, Tracer-Working solution consists of Tracer 236 and Kinase Buffer. Second, Axl, Mer, Tyro3 or Met/anti-GST-AB-Working solution contained one of the kinases Axl, and Mer or anti-GST-AB (=anti glutathione-S-transferase antibody) in Kinase Buffer. Third, anti-GST-AB-Working solution was made with anti-GST-AB and Kinase Buffer. Last, in the DMSO-Working solution DMSO was added to Kinase Buffer to a final concentration to 3%. Each of the four kinds of working solutions were separately added to the assay plate and then incubated for 1 h at room temperature. After incubation, the assay plate was measured with respect to the FRET-Signal with the EnVision (Perkin Elmer) using the program LanthaHTRF-Assay. Data evaluation was done in the Quattro Workflow software. Kd (the equilibrium dissociation constant) values were calculated relative to vehicle (DMSO) control wells.
# Axl = target: T2, Axl (Homo sapiens, UniProt P30530); experiment: LanthaScreen Eu kinase binding assay for Axl
# T2 sequence (P30530 26-894): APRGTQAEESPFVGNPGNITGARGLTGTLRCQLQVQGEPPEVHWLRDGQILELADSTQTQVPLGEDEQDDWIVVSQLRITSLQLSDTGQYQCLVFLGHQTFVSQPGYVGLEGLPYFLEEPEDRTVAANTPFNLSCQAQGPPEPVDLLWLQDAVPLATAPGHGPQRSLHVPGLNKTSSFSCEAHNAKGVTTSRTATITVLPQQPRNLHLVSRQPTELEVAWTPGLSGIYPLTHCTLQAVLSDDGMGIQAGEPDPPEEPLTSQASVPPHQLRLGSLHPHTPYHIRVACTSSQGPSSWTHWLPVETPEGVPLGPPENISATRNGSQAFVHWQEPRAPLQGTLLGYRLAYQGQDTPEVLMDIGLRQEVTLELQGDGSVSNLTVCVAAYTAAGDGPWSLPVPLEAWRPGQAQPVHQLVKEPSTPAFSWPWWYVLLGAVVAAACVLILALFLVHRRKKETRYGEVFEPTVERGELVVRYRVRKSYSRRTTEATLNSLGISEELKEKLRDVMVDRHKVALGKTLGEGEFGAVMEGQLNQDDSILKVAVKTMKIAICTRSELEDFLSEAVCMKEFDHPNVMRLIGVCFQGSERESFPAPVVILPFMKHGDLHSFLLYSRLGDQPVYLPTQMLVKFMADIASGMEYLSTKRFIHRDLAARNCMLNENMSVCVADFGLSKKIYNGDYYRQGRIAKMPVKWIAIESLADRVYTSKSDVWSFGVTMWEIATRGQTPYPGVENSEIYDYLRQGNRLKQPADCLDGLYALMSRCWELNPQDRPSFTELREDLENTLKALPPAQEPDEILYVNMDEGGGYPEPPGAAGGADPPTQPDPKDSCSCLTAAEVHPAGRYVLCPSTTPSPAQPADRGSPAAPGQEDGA
# Experimental: as §1, §2, §3
# [1] = read-out: Mer kinase binding activity (Kd)
# [2] = read-out: Axl kinase binding activity (Kd)
SMILES,Kd (Mer; [1]) [nM],Kd (Axl; [2]) [nM],"Kd (Mer; comparison of compounds of present invention (**) vs compounds of WO2016/166250 (*), read-out: Binding activity Mer (Kd)) [nM]","Kd (Axl; comparison of compounds of present invention (**) vs compounds of WO2016/166250 (*), read-out: Binding activity Axl (Kd)) [nM]"
CCCn1cc(OCC2CNC2)c(C(=O)Nc2ccc(Oc3ccnc4cc(OC)c(OC)cc34)cn2)n1 [Compound 159],≥ 500,≥ 500,,
CCn1cc(OCC(F)(F)F)c(C(=O)Nc2ccc(Oc3ccnc4cc(OC)c(OC)cc34)cn2)n1 [Compound 4],< 100,< 100,1.6,1.1
CCCn1cc(OCC2COC2)c(C(=O)Nc2ccc(Oc3ccnc4cc(OC)c(OC)cc34)cn2)n1 [Compound 106],< 100,< 100,,
COc1cc2nccc(Oc3ccc(NC(=O)c4nn(CCO)cc4OCC(F)(F)F)cn3)c2cc1OC [Compound 129],100 to 500,100 to 500,,
COc1cc2nccc(Oc3ccc(NC(=O)c4nn(CCOC5CC5)cc4OCC(F)(F)F)cn3)c2cc1OC [Compound 130],< 100,< 100,,
